Test system: Tetranychus urticae
Assay: Tetranychus urticae test (OP-resistant, dip application)
Format: in vivo
Conditions: dip application of infested bush beans (Phaseolus vulgaris), OP-resistant spider mites
Method: Tetranychus urticae—Test (OP-Resistent, Dip Application)
To produce a suitable preparation of active compound, 1 part by weight of active compound is mixed with the stated amounts of solvent and emulsifier, and the concentrate is diluted with water to the desired concentrations.
Busch beans (Phaseolus vulgaris), which are heavily infected by the greenhouse red spider mite (Tetranychus urticae) are dipped into an active compound preparation of the desired concentration.
After the desired period of time, the kill in % is determined. 100% means that all spider mites have been killed; 0% means that none of the spider mites have been killed.

SMILES | Kill in % after 6 d (100 ppm) [%] | Kill in % after 6 d (0.16 ppm) [%]
CC1(C)[C@H](/C=C(\Cl)C(F)(F)F)[C@@H]1C(=O)O[C@H](C#N)c1cccc(Oc2ccccc2)c1 [gamma-cyhalothrin] | 65 | –
Cc1cc(C)c(C2=C(OC(=O)CC(C)(C)C)C3(CCCC3)OC2=O)c(C)c1 [spiromesifen] | – | 0
